Reference: patent US20100119483A1, “PEPTIDE VIRAL ENTRY INHIBITORS” (Schering Corporation, priority 2004, published 2010)
“And” between values parts separate entries of the source, which are not always exact repeats. Equal entries are not always repeated.

Tests used:
HCV pseudoparticles [1] = test: HCV pseudoparticle (HCVpp) entry assay in Huh7 hepatoma cells, luciferase readout; type: cell-based, hepatitis C virus; conditions: for RLU units: HCVpp
Method in brief: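 Huh7 cells were pre-treated with peptide for 1 h at 37 °C before exposure to HCV E1/E2-pseudotyped HIV luciferase particles made in 293T cells, followed by 72 h culture and luciferase readout. Peptides were tested at 10 points, 3-fold, from 100 ug/ml; particles lacking envelope served as non-specific entry control.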

[2] = tested on: amphotropic murine leukemia virus; test: AMLV pseudotyped virus entry counter-screen, same infection protocol; type: cell-based; conditions: peptide library screen; cell entry inhibition vs uninhibited control
Method in brief: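 Huh7 hepatoma cells pre-incubated with peptide 1 h at 37 °C, then infected with AMLV pseudotyped virus and cultured 72 h at 37 °C, 5% CO2 before luciferase read-out. Peptides screened at 100 ug/ml, then 10-point 3-fold titrations from 100 ug/ml.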

HCV pseudoparticles [3] = test: HCV pseudoparticle entry assay, anti-CD81 antibody and peptide titrated in a 96-well matrix; type: cell-based, hepatitis C virus; conditions: HCV entry inhibition, combination
Experimental: The anti-CD81 antibody and the peptide were titrated in duplicates in a 96-well formatted matrix and tested in an HCV pseudoparticle entry assay. The assays were carried out essentially as described above.
Dose response curves of anti-CD81 antibody with various amounts of peptide were plotted vs. RLU, and the results are summarized below. […] When the peptide was present at 10-30% of its IC50 concentration, the IC50 for anti-CD81 was reduced by 3 to 6-fold. Similarly, when the peptide was present at 1% to 25% of its IC75 concentration, the IC75 for the anti-CD81 antibody was reduced by 3 to 9 fold. Thus, the peptide enhances the potency of the anti-CD81 antibody.

HCV pseudoparticles [4] = test: Fusion/attachment experiments with HCV pseudoparticles (4° C. attachment, 37° C. entry); type: cell-based, hepatitis C virus; conditions: for RLU: single replicates, listed as V-2b
Experimental: The entry process was allowed to complete after the cells were washed and incubated at 37° C. for 72 hours. If the peptide blocked or interfered with the attachment, few HCVpp particles should bind to the cells and lead to reduced luciferase signal. The peptide had approximately 50% inhibition whereas the anti-CD81 antibody inhibited entry by 20%. Alternatively, an explanation could be that the cell-associated peptide or antibody had no effects on virus attachment, but rather inhibit post-attachment steps, e.g. fusion. When we allowed the HCV pseudoparticles to attach first at 4° C., a nonpermissive temperature for fusion, and added the peptide or anti-CD81 antibody when post-attachment events occurred, anti-CD81 antibody almost inhibited entry by 100%, whereas, the peptide inhibited by approximately 80%.
The incubation scheme for the fusion/attachment experiments is summarized as follows: […]

[5] = A + P (attachment + post attachment)

How did the RLU units (HCV pseudoparticles [1]; peptide conc. 0.091515 log ug/ml, 1st and 2nd trial) turn out when “V-S-F-A-I-K-W-E-Y-V-L-L-L-F-L-L [SEQ ID NO: 77]” was run?
The RLU units was 1044 RLU and 833 RLU.

And the RLU units (HCV pseudoparticles [1]; peptide conc. 0.568636 log ug/ml, 1st and 2nd trial)?
The RLU units was 544 RLU and 500 RLU.

What about the RLU units (HCV pseudoparticles [1]; peptide conc. 2 log ug/ml, 1st and 2nd trial) of the same substance?
The RLU units was 11 RLU and 10 RLU.

What about the RLU units (HCV pseudoparticles [1]; peptide conc. not given, 1st trial) of the same substance?
The RLU units was 1494 RLU.

And the RLU units (HCV pseudoparticles [1]; peptide conc. −0.38561 log ug/ml, 1st and 2nd trial)?
Its RLU units is 1279 RLU and 1283 RLU.

And the RLU units (HCV pseudoparticles [1]; peptide conc. −0.86273 log ug/ml, 1st and 2nd trial)?
The RLU units was 1866 RLU and 1762 RLU.

What about the RLU units (HCV pseudoparticles [1]; peptide conc. −1.33985 log ug/ml (three lines), 1st and 2nd trial) of the same substance?
Its RLU units is 2564 RLU and 2703 RLU and 2998 RLU and 3512 RLU and 2090 RLU and 3359 RLU.

What about the HCVpp % inh (HCV pseudoparticles [1]; peptide library screen, first screened at 100 ug/ml, cell entry inhibition vs uninhibited control) of the same substance?
Its HCVpp % inh is 96%.

And the AMLVpp % inh [2]?
Its AMLVpp % inh is 3%.

What about the “effect of the peptide on potency of anti-CD81 antibody” value (HCV pseudoparticles [3]) of the same substance?
Its value is “enhance the potency of an anti-CD81 antibody”.

And the “step of HCVpp entry inhibited” value (HCV pseudoparticles [4])?
Its value is “largely inhibits a post-attachment step”.

What about the “% control peptide” value (HCV pseudoparticles [4]; A (attachment)) of the same substance?
The value was 39 % control.

What about the “RLU average (peptide)” value (HCV pseudoparticles [4]; A (attachment)) of the same substance?
Its value is 5942 RLU.

What about the RLU (HCV pseudoparticles [4]; A (attachment)) of the same substance?
Its RLU is 5196 RLU and 7987 RLU and 4644 RLU.

And the “% control peptide” value (HCV pseudoparticles [4]; [5])?
The value was 6 % control.

What about the “RLU average (peptide)” value (HCV pseudoparticles [4]; [5]) of the same substance?
Its value is 863 RLU.

What about the RLU (HCV pseudoparticles [4]; [5]) of the same substance?
Its RLU is 527 RLU and 1541 RLU and 520 RLU.

And the inhibition of entry (HCV pseudoparticles [4]; HCV pseudoparticles attached first at 4° C., substance added when post-attachment events occurred)?
The inhibition of entry was “approximately 80%”.

And the “% control peptide” value (HCV pseudoparticles [4]; P (post attachment))?
The value was 11 % control.

What about the “RLU average (peptide)” value (HCV pseudoparticles [4]; P (post attachment)) of the same substance?
The value was 1647 RLU.

And the RLU (HCV pseudoparticles [4]; P (post attachment))?
The RLU was 1984 RLU and 2412 RLU and 545 RLU.

What about the inhibition of entry (HCV pseudoparticles [4]; pre-incubated with cells at 4° C., then HCV pseudoparticles at 4° C., washed, 37° C. for 72 hours (attachment)) of the same substance?
The inhibition of entry was “approximately 50%”.
